Results published in patent US9018214B2, “Bicyclic heterocycle compounds and their uses in therapy” (Astex Therapeutics Limited, priority 2011, dated 2015).
pIC50: −log10 of the molar value. Counter-ions that a name gives are not always drawn. Like-named read-outs stand apart in the source and are kept apart here. One block for each compound: values may come before it.

Key:
[1] = molecular target: BIR3 domain of human cIAP-1 (residues 267-363) (Homo sapiens (Human), UniProt Q13490); assay: cIAP-1 in vitro competitive displacement binding assay (fluorescence polarization; Probe A AVPIK(5&6FAM)-amide or Probe B AbuRPFK(5&6FAM)-amide)
[2] = molecular target: BIR3 domain of human XIAP (residues 252-350) (Homo sapiens (Human), UniProt P98170); assay: XIAP in vitro competitive displacement binding assay (fluorescence polarization); conditions: for pIC50: read-out: IC50 or PI Xiap: IC50
[3] = Probe B AbuRPFK(5&6FAM)-amide, read-out: IC50 or PI cIAP1: IC50
[4] = Probe A AVPIK(5&6FAM)-amide, read-out: IC50 or PI cIAP1: IC50
[5] = read-out: IC50 or PI cIAP1: IC50

inhibition at 160 µM ([1]; 3 h, Probe A, @ 160 μM, read-out: IC50 or PI cIAP1: PI): 51%
SMILES: C[C@@H]1CN(CC(=O)N2CCc3ccc(F)cc32)CCN1 [Example 10, 1-(6-Fluoro-2,3-dihydro-indol-1-yl)-2-((R)-3-methyl-piperazin-1-yl)-ethanone]

pIC50 [2]: 6.11
pIC50 [1, 3]: 6.23
SMILES: COC[C@H]1CN[C@H](C)CN1CC(=O)N1CC(C)(C)c2cc(C)c(C#N)cc21 [Example 134, 1-{2-[(2R,5R)-2-(Methoxymethyl)-5-methylpiperazin-1-yl]acetyl}-3,3,5-trimethyl-2,3-dihydro-1H-indole-6-carbonitrile]

pIC50 [2]: 5.92
pIC50 [1]: > 5.00
pIC50 [1, 4]: 5.42
SMILES: C[C@@H]1CN(CC(=O)N2CCc3ccc(S(=O)(=O)c4ccccc4)cc32)CCN1 [Example 33, 1-(6-Benzene-sulfonyl-2,3-dihydro-indol-1-yl)-2-((R)-3-methyl-piperazin-1-yl)-ethanone hydrochloride salt]

inhibition at 100 µM ([2]; 1 h, @ 100 μM, read-out: IC50 or PI Xiap: PI): 59%
inhibition at 100 µM ([1]; 3 h, Probe A, read-out: IC50 or PI cIAP1: PI): 46%
SMILES: C[C@@H]1CN(CC(=O)N2CCc3cc(Br)ccc32)CCN1 [Example 11, 1-(5-Bromo-2,3-dihydro-indol-1-yl)-2-((R)-3-methyl-piperazin-1-yl)-ethanone]

pIC50 [2]: 5.60
pIC50 [1, 4]: 4.23
SMILES: CNS(=O)(=O)c1ccc2c(c1)N(C(=O)CN1CCN[C@H](C)C1)CC2 [Example 27, 1-[2-((R)-3-Methyl-piperazin-1-yl)-acetyl]-2,3-dihydro-1H-indole-6-sulfonic acid methylamide]

SMILES: COC[C@H]1CN[C@H](C)CN1CC(=O)N1C[C@@](C)(c2ccccc2)c2ccc(C#N)cc21 [Example 139, (3S)-1-{2-[(2R,5R)-2-(Methoxymethyl)-5-methylpiperazin-1-yl]acetyl}-3-methyl-3-phenyl-2,3-dihydro-1H-indole-6-carbonitrile]
pIC50 [2]: 6.64

SMILES: C[C@@H]1CN(CC(=O)N2CC(C)(C)c3ncc(Cc4ccc(F)cc4)cc32)CCN1 [Example 265, 1-[6-(4-Fluoro-benzyl)-3,3-dimethyl-2,3-dihydro-pyrrolo[3,2-b]pyridin-1-yl]-2-((R)-3-methyl-piperazin-1-yl)-ethanone]
pIC50 [1]: > 5.00
pIC50 [1, 5]: 7.39

inhibition at 1600 µM ([2]; 1 h, @ 1600 μM, read-out: IC50 or PI Xiap: PI): 43%
inhibition at 5000 µM ([1]; 3 h, Probe A, @ 5000 μM, read-out: IC50 or PI cIAP1: PI): -30%
SMILES: C[C@@H]1CN(CC(=O)N2CCc3ccc(N)cc32)CCN1 [Example 7, 1-(6-Amino-2,3-dihydro-indol-1-yl)-2-((R)-3-methyl-piperazin-1-yl)-ethanone]

pIC50 [1, 4]: 4.54
SMILES: C[C@@H]1CN(CC(=O)N2CCc3ccc(Cl)cc32)CCN1 [Example 4, 1-(6-Chloro-2,3-dihydro-indol-1-yl)-2-((R)-3-methyl-piperazin-1-yl)-ethanone]

inhibition at 99 µM ([1]; 3 h, Probe A, @ 99 μM, read-out: IC50 or PI cIAP1: PI): 60%
SMILES: C[C@@H]1CN(CC(=O)N2CCc3ccc(S(C)(=O)=O)cc32)CCN1 [Example 30, 1-(6-Methane-sulfonyl-2,3-dihydro-indol-1-yl)-2-((R)-3-methyl-piperazin-1-yl)-ethanone hydrochloride salt]

inhibition at 160 µM ([2]; 1 h, @ 160 μM, read-out: IC50 or PI Xiap: PI): 45%
pIC50 [1, 4]: 4.57
SMILES: C[C@@H]1CN(CC(=O)N2CC(C)(C)c3ccccc32)CCN1 [Example 21, 1-(3,3-Dimethyl-2,3-dihydro-indol-1-yl)-2-((R)-3-methyl-piperazin-1-yl)-ethanone]

pIC50 [2]: 4.92
pIC50 [1, 3]: 5.09
SMILES: C[C@@H]1CN(CC(=O)N2CC3(CCC3)c3ccc(Cl)cc32)CCN1 [Example 55, 1-{6′-Chloro-1′,2′-dihydrospiro[cyclobutane-1,3′-indole]-1′-yl}-2-[(3R)-3-methyl-piperazin-1-yl]ethan-1-one hydrochloride salt]

pIC50 [1, 3]: 5.82
SMILES: CC1(C)CN(C(=O)CN2CCNC(CF)C2)c2cc(Cc3ccccc3)ncc21 (stereo not shown) [Example 114, 1-{6-Benzyl-3,3-dimethyl-1H,2H,3H-pyrrolo[3,2-c]pyridin-1-yl}-2-[3-(fluoromethyl)piperazin-1-yl]ethan-1-one]

pIC50 [1, 3]: 7.64
SMILES: COC[C@H]1CN[C@H](C)CN1CC(=O)N1CC(C)(C)c2cnc(Cc3ccc(OC)cc3)cc21 [Example 98, 2-[(2R,5R)-2-(Methoxymethyl)-5-methylpiperazin-1-yl]-1-{6-[(4-methoxyphenyl)methyl]-3,3-dimethyl-1H,2H,3H-pyrrolo[3,2-c]pyridin-1-yl}ethan-1-one, hydrochloride salt]

pIC50 [1, 4]: 4.20
SMILES: CC(C)c1ccc2c(c1)N(C(=O)CN1CCN[C@H](C)C1)CC2 [Example 13, 1-(6-Isopropyl-2,3-dihydro-indol-1-yl)-2-((R)-3-methyl-piperazin-1-yl)-ethanone]

pIC50 [1, 3]: 6.17
SMILES: CC1(C)CN(C(=O)CN2CCN[C@H](CF)C2)c2cc(Cc3ccccc3)ncc21 [Example 115, 1-{6-Benzyl-3,3-dimethyl-1H,2H,3H-pyrrolo[3,2-c]pyridin-1-yl}-2-[(3S)-3-(fluoromethyl)piperazin-1-yl]ethan-1-one]

inhibition at 100 µM ([1]; 3 h, Probe B, read-out: IC50 or PI cIAP1: PI): 6%
SMILES: CC1(C)CN(C(=O)CN2CCNC(C(F)(F)F)C2)c2cc(Cc3ccccc3)ncc21 (stereo not shown) [Example 113, 1-{6-Benzyl-3,3-dimethyl-1H,2H,3H-pyrrolo[3,2-c]pyridin-1-yl}-2-[3-(trifluoromethyl)piperazin-1-yl]ethan-1-one]

SMILES: C[C@@H]1CN(CC(=O)N2CCc3ccc(Nc4ccccc4)cc32)CCN1 [Example 3, 2-((R)-3-Methyl-piperazin-1-yl)-1-(6-phenylamino-2,3-dihydro-indol-1-yl)-ethanone Trifluoroacetate salt]
inhibition at 99 µM ([1]; 3 h, read-out: IC50 or PI cIAP1: PI): 48%

pIC50 [1, 4]: 4.02
SMILES: Cc1ccc2c(c1)N(C(=O)CN1CCN[C@H](C)C1)CC2 [Example 6, 1-(6-Methyl-2,3-dihydro-indol-1-yl)-2-((R)-3-methyl-piperazin-1-yl)-ethanone]

SMILES: C[C@@H]1CN(CC(=O)N2CC(C)(C)c3ncc(C(C)(F)F)cc32)[C@@H](CN2CCCC2=O)CN1 [Example 188, 1-{[(2R,5R)-1-{2-[6-(1,1-Difluoroethyl)-3,3-dimethyl-1H,2H,3H-pyrrolo[3,2-b]pyridin-1-yl]-2-oxoethyl}-5-methylpiperazin-2-yl]methyl}pyrrolidin-2-one dihydrochloride]
pIC50 [1, 5]: 7.40

pIC50 [1]: > 5.00
SMILES: CC(C)[C@H]1CN[C@H](C)CN1CC(=O)N1CCc2ccc(Br)cc21 [Example 12, 1-(6-Bromo-2,3-dihydro-indol-1-yl)-2-((2S,5R)-2-isopropyl-5-methyl-piperazin-1-yl)-ethanone]

pIC50 [1, 3]: 6.51
SMILES: COC[C@H]1CN[C@H](C)CN1CC(=O)N1CC(C)(C)c2cnc(CC(C)C)cc21 [Example 72, 1-(6-Isobutyl-3,3-dimethyl-2,3-dihydro-pyrrolo[3,2-c]pyridin-1-yl)-2-((2R,5R)-2-methoxymethyl-5-methyl-piperazin-1-yl)-ethanone]

pIC50 [1, 3]: 5.72
SMILES: CC1(C)CN(C(=O)CN2CCN[C@@H](CF)C2)c2cc(Cc3ccccc3)ncc21 [Example 116, 1-{6-Benzyl-3,3-dimethyl-1H,2H,3H-pyrrolo[3,2-c]pyridin-1-yl}-2-[(3R)-3-(fluoromethyl)piperazin-1-yl]ethan-1-one]

pIC50 [1, 4]: 4.44
SMILES: C[C@@H]1CN(CC(=O)N2CCc3ccc(C(F)(F)F)cc32)CCN1 [Example 22, 2-((R)-3-Methyl-piperazin-1-yl)-1-(6-trifluoromethyl-2,3-dihydro-indol-1-yl)-ethanone]

pIC50 [1, 3]: 6.26
SMILES: COC[C@H]1CN[C@H](C)CN1CC(=O)N1CC(C)(Cc2ccccc2)c2ccc(Cl)cc21 (stereo partly drawn) [Example 107, 1-(3-Benzyl-6-chloro-3-methyl-2,3-dihydro-1H-indol-1-yl)-2-[(2R,5R)-2-(methoxymethyl)-5-methylpiperazin-1-yl]ethan-1-one, hydrochloride salt]
